# From ChEMBL document CHEMBL1132460, “Affinity and selectivity of matrix metalloproteinase inhibitors: a chemometrical study from the perspective of ligands and proteins” (J Med Chem, 1999)
# pIC50: −log10 of the molar value.
# How the values were obtained:
# Stromelysin-1 = Stromelysin-1 (Homo sapiens, UniProt P08254); experiment: Inhibitory concentration against human matrix metalloprotease-3 (MMP-3); settings: for pIC50: read-out: IC50
# Neutrophil collagenase = Neutrophil collagenase (Homo sapiens, UniProt P22894); experiment: Inhibitory concentration against human matrix metalloprotease-8 (human neutrophil collagenase, MMP-8)
# [1] = Affinity ratio of IC50 of MMP-3 to IC50 of MMP-8
# Chain of Neutrophil collagenase (P22894 whole entry): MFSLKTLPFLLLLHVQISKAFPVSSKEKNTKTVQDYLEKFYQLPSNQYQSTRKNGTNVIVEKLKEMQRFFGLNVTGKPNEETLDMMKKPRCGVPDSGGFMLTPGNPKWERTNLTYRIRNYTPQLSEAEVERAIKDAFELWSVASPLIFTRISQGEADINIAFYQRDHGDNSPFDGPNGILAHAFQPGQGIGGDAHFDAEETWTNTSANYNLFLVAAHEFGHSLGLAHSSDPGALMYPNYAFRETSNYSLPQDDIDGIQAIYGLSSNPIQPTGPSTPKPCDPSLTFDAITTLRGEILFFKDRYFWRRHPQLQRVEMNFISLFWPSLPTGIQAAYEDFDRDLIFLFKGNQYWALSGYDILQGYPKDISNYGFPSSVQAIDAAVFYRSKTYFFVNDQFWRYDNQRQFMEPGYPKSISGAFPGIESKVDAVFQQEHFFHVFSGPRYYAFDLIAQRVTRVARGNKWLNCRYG
# Chain of Stromelysin-1 (P08254 whole entry): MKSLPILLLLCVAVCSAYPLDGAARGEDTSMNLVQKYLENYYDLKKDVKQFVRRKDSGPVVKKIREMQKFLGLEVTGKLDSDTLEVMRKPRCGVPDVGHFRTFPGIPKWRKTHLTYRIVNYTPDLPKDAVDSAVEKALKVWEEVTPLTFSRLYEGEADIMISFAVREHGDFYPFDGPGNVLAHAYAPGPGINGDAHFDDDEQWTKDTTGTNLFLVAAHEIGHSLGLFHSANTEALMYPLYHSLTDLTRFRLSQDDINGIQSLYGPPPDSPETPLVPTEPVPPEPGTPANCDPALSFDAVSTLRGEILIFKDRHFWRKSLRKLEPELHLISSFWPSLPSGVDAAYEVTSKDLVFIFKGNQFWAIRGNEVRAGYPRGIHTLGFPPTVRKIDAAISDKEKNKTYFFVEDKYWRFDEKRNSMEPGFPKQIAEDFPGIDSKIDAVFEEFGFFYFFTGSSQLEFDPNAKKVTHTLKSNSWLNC
Compound,pIC50 (Stromelysin-1),pIC50 (Neutrophil collagenase),log10(IC50 MMP-3/IC50 MMP-8) [1],IC50 (Stromelysin-1)
O=C(NO)C1Cc2ccccc2CN1S(=O)(=O)CCc1ccncc1 (stereo not drawn),6.05,7.52,1.48,
CCCCCCCCCCCCCCCCS(=O)(=O)N1Cc2ccccc2CC1C(=O)NO (stereo not drawn),,5.52,0.52,10000 nM l-1
O=C(NO)C1Cc2ccccc2CN1S(=O)(=O)c1ccc(OCc2ccc(F)cc2)cc1 (stereo not drawn),7.70,8.70,1,
O=C(c1ccccc1)c1ccc(S(=O)(=O)N2Cc3ccccc3CC2C(=O)NO)cc1 (stereo not drawn),7.52,8.52,1,
COc1ccc(S(=O)(=O)N2Cc3ncn(C)c3C[C@@H]2C(=O)O)cc1,,6.00,1,10000 nM l-1
O=C(NO)C1Cc2ccccc2CN1S(=O)(=O)c1ccc2ccccc2c1 (stereo not drawn),6.40,7.15,0.76,
O=C(O)C1Cc2ccccc2CN1S(=O)(=O)c1ccc(Br)cc1 (stereo not drawn),5.30,6.22,,
O=C(NO)C1Cc2ccccc2CN1S(=O)(=O)c1ccc(-c2ccc(Cl)cc2)cc1 (stereo not drawn),7.70,8.52,0.82,
COc1ccc(S(=O)(=O)N2Cc3cc(O)ccc3CC2C(=O)NO)cc1 (stereo not drawn),8.00,9.00,1,
O=C(O)[C@H]1Cc2c([nH]c3ccccc23)CN1S(=O)(=O)c1ccc(Oc2ccccc2)cc1,,,1.3,
CCOC(=O)Oc1ccc2c(c1)CN(S(=O)(=O)c1ccc(OC)cc1)C(C(=O)NO)C2 (stereo not drawn),7.70,8.70,1,
COc1ccc(S(=O)(=O)N2Cc3cc(NC(=O)OC(C)(C)C)ccc3CC2C(=O)NO)cc1 (stereo not drawn),7.70,8.52,0.82,
O=C(O)C1Cc2ccccc2CN1S(=O)(=O)c1ccc(/C=C/c2ccccc2)cc1 (stereo not drawn),6.15,7.22,,
COc1ccc(OC(=O)Nc2cccc(S(=O)(=O)N3Cc4ccccc4CC3C(=O)NO)c2)cc1 (stereo not drawn),5.52,6.70,1.18,
O=C(NO)[C@H]1Cc2c([nH]c3ccccc23)CN1S(=O)(=O)c1ccc(N2CCOCC2)cc1,,,0.63,
O=C(O)C1Cc2ccccc2CN1S(=O)(=O)c1ccc(-c2ccc(C(F)(F)F)cc2)cc1 (stereo not drawn),6.52,8.00,,
O=C(NO)C1Cc2ccccc2CN1S(=O)(=O)c1ccc2oc3ccccc3c2c1 (stereo not drawn),7.00,8.00,1,
O=C(NO)C1Cc2ccccc2CN1S(=O)(=O)c1cc(Br)c(Br)s1 (stereo not drawn),,6.30,1.3,10000 nM l-1
O=C(O)C1Cc2ccc(O)cc2CN1S(=O)(=O)c1ccc(-c2ccc(Cl)cc2)cc1 (stereo not drawn),6.70,7.70,,
COc1ccc(S(=O)(=O)N2Cc3cc(NC(=O)CCC(=O)O)ccc3CC2C(=O)NO)cc1 (stereo not drawn),7.70,7.40,-0.3,

Compound,pIC50 (Stromelysin-1),pIC50 (Neutrophil collagenase),log10(IC50 MMP-3/IC50 MMP-8) [1],IC50 (Stromelysin-1)
COc1ccc(S(=O)(=O)N2Cc3ncn(C)c3C[C@@H]2C(=O)NO)cc1,7.70,,0.82,
CCOC(=O)Nc1ccc(S(=O)(=O)N2Cc3ccccc3CC2C(=O)NO)cc1 (stereo not drawn),,,1.22,
CC(=O)Nc1ccc(S(=O)(=O)N2Cc3ccccc3CC2C(=O)NO)cc1 (stereo not drawn),,,0.85,
COC(=O)c1csc(S(=O)(=O)N2Cc3ccccc3CC2C(=O)NO)c1OC (stereo not drawn),6.15,7.10,0.94,
CNC(=O)c1ccc(Oc2ccc(S(=O)(=O)N3Cc4ccccc4CC3C(=O)O)cc2)cc1 (stereo not drawn),6.52,7.40,,
CN(C)c1ccc(-c2ccc(S(=O)(=O)N3Cc4ccccc4CC3C(=O)NO)cc2)cc1 (stereo not drawn),7.70,8.70,1,
COc1ccc(S(=O)(=O)N2Cc3ccccc3C[C@@H]2C(=O)NO)cc1,7.70,,0.7,
CCCCOc1ccc(S(=O)(=O)N2Cc3ccccc3CC2C(=O)NO)cc1 (stereo not drawn),7.52,8.70,1.18,
O=C(O)C1Cc2ccccc2CN1S(=O)(=O)c1ccc(-c2nc3ccccc3o2)cc1 (stereo not drawn),6.10,7.10,,
O=C(Nc1cccc(S(=O)(=O)N2Cc3ccccc3CC2C(=O)NO)c1)c1ccccc1O (stereo not drawn),,6.70,,10000 nM l-1
O=C(NO)C1Cc2ccccc2CN1S(=O)(=O)Cc1ccc(-c2ccccn2)s1 (stereo not drawn),7.70,8.70,1,
N#Cc1ccc(Oc2ccc(S(=O)(=O)N3Cc4ccccc4CC3C(=O)O)cc2)cc1 (stereo not drawn),6.00,8.00,,
COc1ccc(S(=O)(=O)N2Cc3cc(N)ccc3CC2C(=O)NO)cc1 (stereo not drawn),8.00,,,
COc1ccc(S(=O)(=O)N2Cc3ccccc3C[C@H]2C(=O)NO)cc1,5.15,,0.85,
COc1ccc(S(=O)(=O)Oc2ccc3c(c2)CN(S(=O)(=O)c2ccc(OC)cc2)C(C(=O)NO)C3)cc1 (stereo not drawn),7.52,8.10,0.57,
COc1ccc(S(=O)(=O)N2Cc3[nH]c4ccccc4c3C[C@@H]2C(=O)NO)cc1,,,0.82,
COc1ccc(S(=O)(=O)N2Cc3[nH]cnc3C[C@@H]2C(=O)NO)cc1,,,0.7,
O=C(O)C1Cc2ccccc2CN1S(=O)(=O)c1ccc(-c2ccccn2)s1 (stereo not drawn),5.70,7.05,,
COc1ccc(S(=O)(=O)N2Cc3cc([N+](=O)[O-])ccc3CC2C(=O)NO)cc1 (stereo not drawn),,,1,
O=C(NO)C1Cc2ccccc2CN1S(=O)(=O)c1ccc(-c2ccccc2)cc1 (stereo not drawn),,8.70,1,

Compound,pIC50 (Stromelysin-1),pIC50 (Neutrophil collagenase),log10(IC50 MMP-3/IC50 MMP-8) [1],IC50 (Stromelysin-1)
CN(C)c1ccc(Oc2ccc(S(=O)(=O)N3Cc4ccccc4CC3C(=O)NO)cc2)cc1 (stereo not drawn),7.52,8.70,1.18,
COc1ccc(S(=O)(=O)N2Cc3cc(NC(=O)[C@H](C)N)ccc3CC2C(=O)NO)cc1 (stereo partly drawn),7.52,,,
O=C(O)C1Cc2ccccc2CN1S(=O)(=O)c1ccc(-n2nccn2)cc1 (stereo not drawn),6.22,7.05,,
O=C(O)C1Cc2ccccc2CN1S(=O)(=O)c1ccc(Oc2ccc(Cl)cc2)cc1 (stereo not drawn),6.30,7.70,,
O=C(NCc1csc(S(=O)(=O)N2Cc3ccccc3CC2C(=O)NO)c1)c1ccccc1 (stereo not drawn),5.22,6.10,0.88,
O=C(NO)C1Cc2ccccc2CN1S(=O)(=O)c1ccc2[nH]c(-c3ccccc3)nc2c1 (stereo not drawn),6.30,7.40,1.1,
Nc1ccc2c(c1)CN(S(=O)(=O)c1ccc(-c3ccc(F)cc3)cc1)C(C(=O)NO)C2 (stereo not drawn),7.70,8.70,1,
O=C(c1ccccc1)c1ccc(S(=O)(=O)N2Cc3ccccc3CC2C(=O)O)cc1 (stereo not drawn),5.52,6.52,,
CC(C)(C)OC(=O)Nc1ccc2c(c1)CN(S(=O)(=O)c1ccc(-c3ccc(F)cc3)cc1)C(C(=O)NO)C2 (stereo not drawn),7.00,8.00,1,
O=C(O)C1Cc2ccccc2CN1S(=O)(=O)c1ccc(-c2ccon2)s1 (stereo not drawn),5.70,6.22,,
O=C(O)C1Cc2ccccc2CN1S(=O)(=O)CCc1ccc(-c2ccccc2)cc1 (stereo not drawn),7.30,7.70,,
O=C(O)C1Cc2ccccc2CN1S(=O)(=O)c1ccc(Oc2ccccc2)cc1 (stereo not drawn),6.70,8.05,,
O=C(O)C1Cc2ccccc2CN1S(=O)(=O)c1ccc(Sc2ccccc2)cc1 (stereo not drawn),5.70,6.70,,
O=C(Nc1ccc(S(=O)(=O)N2Cc3ccccc3CC2C(=O)NO)cc1)OCc1ccccc1 (stereo not drawn),6.40,6.10,,
CSc1nccc(-c2ccc(S(=O)(=O)N3Cc4ccccc4CC3C(=O)O)s2)n1 (stereo not drawn),,6.00,,10000 nM l-1
O=C(NO)C1Cc2ccccc2CN1S(=O)(=O)c1ccc(Oc2ccccc2)cc1 (stereo not drawn),7.70,8.70,1,
O=C(NO)C1Cc2ccccc2CN1S(=O)(=O)c1ccc(-c2ccon2)s1 (stereo not drawn),7.30,8.10,0.8,
O=C(NO)C1Cc2ccccc2CN1S(=O)(=O)Cc1ccccc1 (stereo not drawn),,5.52,,10000 nM l-1
